According to US20230233569A1 (Revolution Medicines, Inc., priority 2020, published 2023):
Where two headings read alike, the source gives them in different places.

Columns and labels:
Assay in all cases: Ras-Raf disruption / FRET / MOA assay (BRAF RBD)
Format in all cases: biochemical
[1] = molecular target: KRAS G12D (Homo sapiens, UniProt P01116+P62937, G12D); conditions: with Cyclophilin A
Outline: (§1)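 Compound-induced Ras–Cyclophilin A ternary complex disrupting BRAF RBD binding, read as IC50 from reduced TR-FRET ratio relative to DMSO. Final: Ras-GMPPNP 12.5 nM, BRAF RBD 50 nM, Cyclophilin A 25 μM, top compound 30 μM (3-fold, 10 points); 3 h at 25 °C, then 1.5 h with detection antibodies.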

[2] = molecular target: KRAS G12S (Homo sapiens, UniProt P01116+P62937, G12S); conditions: with Cyclophilin A
KRAS G12S, sequence (P01116 1-169 isoform P01116-2 G12S limits assumed): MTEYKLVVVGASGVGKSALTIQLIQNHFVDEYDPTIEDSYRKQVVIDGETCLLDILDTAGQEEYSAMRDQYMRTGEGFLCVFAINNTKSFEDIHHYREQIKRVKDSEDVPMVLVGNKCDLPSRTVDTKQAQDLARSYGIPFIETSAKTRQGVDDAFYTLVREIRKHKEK
KRAS G12S, sequence (P62937 whole entry): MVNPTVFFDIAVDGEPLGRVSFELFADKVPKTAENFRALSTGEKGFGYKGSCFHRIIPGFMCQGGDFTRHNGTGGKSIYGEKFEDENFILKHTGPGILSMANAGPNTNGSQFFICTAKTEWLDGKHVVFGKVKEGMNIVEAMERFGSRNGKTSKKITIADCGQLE
Outline: as §1

[3] = molecular target: KRAS G12V (Homo sapiens, UniProt P01116+P62937, G12V); conditions: with Cyclophilin A
KRAS G12V, sequence (P01116 1-169 isoform P01116-2 G12V limits assumed): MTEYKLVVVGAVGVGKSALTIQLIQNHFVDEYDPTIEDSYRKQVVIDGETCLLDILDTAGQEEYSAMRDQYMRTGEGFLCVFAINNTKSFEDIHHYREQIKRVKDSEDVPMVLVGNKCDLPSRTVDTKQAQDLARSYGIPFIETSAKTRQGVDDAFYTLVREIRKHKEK
KRAS G12V, sequence (P62937 whole entry): as the sequence (P62937 whole entry) above
Outline: as §1

[4] = molecular target: KRAS G13C (Homo sapiens, UniProt P01116+P62937, G13C); conditions: with Cyclophilin A
KRAS G13C, sequence (P01116 1-169 isoform P01116-2 G13C limits assumed): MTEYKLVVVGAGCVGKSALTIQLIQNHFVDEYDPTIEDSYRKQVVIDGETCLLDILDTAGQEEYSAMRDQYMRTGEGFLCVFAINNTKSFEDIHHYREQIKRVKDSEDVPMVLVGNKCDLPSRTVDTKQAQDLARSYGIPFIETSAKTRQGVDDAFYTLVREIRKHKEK
KRAS G13C, sequence (P62937 whole entry): as the sequence (P62937 whole entry) above
Outline: as §1

[5] = molecular target: KRAS G13D (Homo sapiens, UniProt P01116+P62937, G13D); conditions: with Cyclophilin A
KRAS G13D, sequence (P01116 1-169 isoform P01116-2 G13D limits assumed): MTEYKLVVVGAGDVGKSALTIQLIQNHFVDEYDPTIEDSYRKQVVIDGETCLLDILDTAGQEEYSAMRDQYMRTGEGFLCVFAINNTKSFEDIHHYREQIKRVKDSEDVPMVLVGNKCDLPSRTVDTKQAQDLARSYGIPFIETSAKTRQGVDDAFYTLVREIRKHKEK
KRAS G13D, sequence (P62937 whole entry): as the sequence (P62937 whole entry) above
Outline: as §1

[6] = molecular target: KRAS Q61H (Homo sapiens, UniProt P01116+P62937, Q61H)
KRAS Q61H, sequence (P01116 1-169 isoform P01116-2 Q61H limits assumed): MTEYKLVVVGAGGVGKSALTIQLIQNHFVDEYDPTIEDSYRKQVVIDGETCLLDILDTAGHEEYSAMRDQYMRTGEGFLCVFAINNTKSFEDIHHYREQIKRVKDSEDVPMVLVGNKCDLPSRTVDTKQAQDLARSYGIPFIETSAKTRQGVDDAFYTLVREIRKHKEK
KRAS Q61H, sequence (P62937 whole entry): as the sequence (P62937 whole entry) above
Outline: as §1

[7] = molecular target: KRAS WT (Homo sapiens, UniProt P01116+P62937); conditions: with Cyclophilin A
KRAS WT, sequence (P01116 1-169 isoform P01116-2 limits assumed): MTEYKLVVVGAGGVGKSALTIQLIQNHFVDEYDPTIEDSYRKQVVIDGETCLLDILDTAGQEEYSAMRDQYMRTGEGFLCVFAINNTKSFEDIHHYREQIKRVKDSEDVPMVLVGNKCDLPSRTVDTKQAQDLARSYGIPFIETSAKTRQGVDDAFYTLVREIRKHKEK
KRAS WT, sequence (P62937 whole entry): as the sequence (P62937 whole entry) above
Outline: as §1

[8] = molecular target: NRAS G12C (Homo sapiens, UniProt P01111+P62937, G12C)
NRAS G12C, sequence (P01111 whole entry G12C): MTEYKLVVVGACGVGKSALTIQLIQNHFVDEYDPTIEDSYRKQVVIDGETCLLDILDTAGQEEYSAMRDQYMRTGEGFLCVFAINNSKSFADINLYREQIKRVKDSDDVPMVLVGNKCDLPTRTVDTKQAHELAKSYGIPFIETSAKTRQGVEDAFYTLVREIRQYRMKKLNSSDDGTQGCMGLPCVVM
NRAS G12C, sequence (P62937 whole entry): as the sequence (P62937 whole entry) above
Outline: as §1

[9] = molecular target: NRAS Q61K (Homo sapiens, UniProt P01111+P62937, Q61K)
NRAS Q61K, sequence (P01111 whole entry Q61K): as the sequence (P01111 whole entry G12C) above, with C12G, Q61K counted along it
NRAS Q61K, sequence (P62937 whole entry): as the sequence (P62937 whole entry) above
Outline: as §1

[10] = molecular target: NRAS Q61R (Homo sapiens, UniProt P01111+P62937, Q61R)
NRAS Q61R, sequence (P01111 whole entry Q61R): as the sequence (P01111 whole entry G12C) above, with C12G, Q61R counted along it
NRAS Q61R, sequence (P62937 whole entry): as the sequence (P62937 whole entry) above
Outline: as §1

[11] = molecular target: NRAS WT (Homo sapiens, UniProt P01111+P62937)
NRAS WT, sequence (P01111 whole entry): as the sequence (P01111 whole entry G12C) above, with C12G counted along it
NRAS WT, sequence (P62937 whole entry): as the sequence (P62937 whole entry) above
Outline: as §1

[12] = molecular target: KRAS G12C (Homo sapiens, UniProt P01116+P62937, G12C); conditions: with Cyclophilin A
KRAS G12C, sequence (P01116 1-169 isoform P01116-2 G12C limits assumed): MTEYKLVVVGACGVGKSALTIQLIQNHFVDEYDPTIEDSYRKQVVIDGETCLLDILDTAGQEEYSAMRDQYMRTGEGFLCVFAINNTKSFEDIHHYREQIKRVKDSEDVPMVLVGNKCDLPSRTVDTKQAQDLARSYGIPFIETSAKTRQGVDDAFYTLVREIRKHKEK
KRAS G12C, sequence (P62937 whole entry): as the sequence (P62937 whole entry) above
Outline: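 TR-FRET read-out after 1.5 h with anti-His Eu-W1024 (10 nM) and anti-GST APC (50 nM), following 3 h at 25 °C of compound (top 30 μM, 3-fold, 10 points) with 25 μM Cyclophilin A, 12.5 nM GMPPNP-loaded K-Ras G12C and 50 nM BRAF RBD; IC50 reported.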

[13] = Ras-Raf disruption, read-out: KRAS G12D FRET data IC50
[14] = Ras-Raf disruption, read-out: KRAS G12S FRET data IC50
[15] = Ras-Raf disruption, read-out: KRAS G12V FRET data IC50
[16] = Ras-Raf disruption, read-out: KRAS G13C FRET data IC50
[17] = Ras-Raf disruption, read-out: KRAS G13D FRET data IC50
[18] = KRAS Q61H, read-out: KRAS Q61H FRET data IC50
[19] = Ras-Raf disruption, read-out: KRAS WT FRET data IC50
[20] = NRAS G12C, read-out: NRAS G12C FRET data IC50
[21] = NRAS Q61K, read-out: NRAS Q61K FRET data IC50
[22] = NRAS Q61R, read-out: NRAS Q61R FRET data IC50
[23] = NRAS WT, read-out: NRAS WT FRET data IC50
[24] = Ras-Raf disruption, read-out: KRAS G12C FRET data IC50
[25] = KRAS G12D FRET data IC50, Ras-Raf disruption
[26] = KRAS G12S FRET data IC50, Ras-Raf disruption
[27] = KRAS G12V FRET data IC50, Ras-Raf disruption
[28] = KRAS G13C FRET data IC50, Ras-Raf disruption
[29] = KRAS G13D FRET data IC50, Ras-Raf disruption
[30] = KRAS WT FRET data IC50, Ras-Raf disruption
[31] = NRAS G12C FRET data IC50, NRAS G12C
[32] = KRAS G12C FRET data IC50, Ras-Raf disruption

KRAS G12D, sequence (P01116 1-169 isoform P01116-2 G12D limits assumed): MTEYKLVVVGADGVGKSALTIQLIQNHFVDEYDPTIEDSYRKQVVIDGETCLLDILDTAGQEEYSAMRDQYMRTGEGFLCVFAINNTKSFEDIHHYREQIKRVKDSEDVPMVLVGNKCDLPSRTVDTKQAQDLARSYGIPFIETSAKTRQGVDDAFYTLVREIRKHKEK
KRAS G12D, sequence (P62937 whole entry): as the sequence (P62937 whole entry) above

| Compound | IC50 [1, 13] [nM] | IC50 [2, 14] [nM] | IC50 [3, 15] [nM] | IC50 [4, 16] [nM] | IC50 [5, 17] [nM] | IC50 [6, 18] [nM] | IC50 [7, 19] [nM] | IC50 [8, 20] [nM] | IC50 [9, 21] [nM] | IC50 [10, 22] [nM] | IC50 [11, 23] [nM] | IC50 [12, 24] [nM] | IC50 [1, 25] [nM] | IC50 [2, 26] [nM] | IC50 [3, 27] [nM] | IC50 [4, 28] [nM] | IC50 [5, 29] [nM] | IC50 [6] [nM] | IC50 [7, 30] [nM] | IC50 [8, 31] [nM] | other results |
| --- | --- | --- | --- | --- | --- | --- | --- | --- | --- | --- | --- | --- | --- | --- | --- | --- | --- | --- | --- | --- | --- |
| CCn1c(-c2cccnc2[C@H](C)OC)c2c3cc(ccc31)-c1csc(n1)C[C@H](NC(=O)[C@H](C(C)C)N(C)C(=O)N1CCC(CN(C)C(=O)[C@H]3CN3)CC1)C(=O)N1CCC[C@H](N1)C(=O)OCC(C)(C)C2 (atropisomer, axis not shown) [Example 326] | 100 to 1000 | 10 to 100 | 10 to 100 | 10 to 100 | 100 to 1000 | 10 to 100 | 10 to 100 | 10 to 100 | 10 to 100 | 10 to 100 | 10 to 100 | 10 to 100 | – | – | – | – | – | – | – | – | – |
| CCn1c(-c2cccnc2[C@H](C)OC)c2c3cc(ccc31)-c1cc(O)cc(c1)C[C@H](NC(=O)[C@H](C1CCCC1)N(C)C(=O)CN(C)C(=O)[C@@H]1N[C@@H]1C1(F)CC1)C(=O)N1CCC[C@H](N1)C(=O)OCC(C)(C)C2 [Example 314] | – | – | – | – | – | – | – | – | – | – | – | – | 100 to 1000 | 10 to 100 | 10 to 100 | 10 to 100 | 10 to 100 | 10 to 100 | 10 to 100 | 10 to 100 | IC50 [9]: 100 to 1000 nM; IC50 [10]: 100 to 1000 nM; IC50 [11]: 10 to 100 nM; IC50 [12, 32]: 10 to 100 nM |
| CCn1c(-c2cccnc2[C@H](C)OC)c2c3cc(ccc31)-c1cc(O)cc(c1)C[C@H](NC(=O)[C@H](C1CCCC1)N(C)C(=O)CN(C)C(=O)[C@H]1N[C@H]1C1(F)CC1)C(=O)N1CCC[C@H](N1)C(=O)OCC(C)(C)C2 [Example 315] | – | – | – | – | – | – | – | – | – | – | – | – | 10 to 100 | 10 to 100 | 10 to 100 | 10 to 100 | 10 to 100 | 10 to 100 | 10 to 100 | 10 to 100 | IC50 [9]: 10 to 100 nM; IC50 [10]: 100 to 1000 nM; IC50 [11]: < 10 nM; IC50 [12, 32]: 10 to 100 nM |
| CCn1c(-c2cccnc2[C@H](C)OC)c2c3cc(ccc31)-c1csc(n1)C[C@H](NC(=O)[C@H](C(C)C)N(C)C(=O)N1CC[C@@H](N(C)C(=O)[C@@H]3CN3)C1)C(=O)N1CCC[C@H](N1)C(=O)OCC(C)(C)C2 (atropisomer, axis not shown) [Example 227] | 100 to 1000 | 100 to 1000 | 100 to 1000 | 100 to 1000 | 100 to 1000 | 10 to 100 | 100 to 1000 | 10 to 100 | 10 to 100 | 100 to 1000 | 100 to 1000 | 100 to 1000 | – | – | – | – | – | – | – | – | – |
| CCn1c(-c2cccnc2[C@H](C)OC)c2c3cc(ccc31)-c1csc(n1)C[C@H](NC(=O)[C@H](C(C)C)N(C)C(=O)N1CCN(C(=O)[C@@H]3CN3)[C@H](C)C1)C(=O)N1CCC[C@H](N1)C(=O)OCC(C)(C)C2 [Example 300] | 100 to 1000 | 100 to 1000 | 100 to 1000 | 100 to 1000 | 100 to 1000 | 10 to 100 | 100 to 1000 | 10 to 100 | 10 to 100 | 100 to 1000 | 100 to 1000 | 100 to 1000 | – | – | – | – | – | – | – | – | – |
| CCn1c(-c2cccnc2[C@H](C)OC)c2c3cc(ccc31)-c1cc(O)cc(c1)C[C@H](NC(=O)[C@H](C1CCCC1)N(C)C(=O)CN(C)C(=O)[C@H]1N[C@H]1C1(C#N)CC1)C(=O)N1CCC[C@H](N1)C(=O)OCC(C)(C)C2 [Example 316] | – | – | – | – | – | – | – | – | – | – | – | – | 10 to 100 | 10 to 100 | 10 to 100 | 10 to 100 | 10 to 100 | 10 to 100 | 10 to 100 | 10 to 100 | IC50 [9]: 100 to 1000 nM; IC50 [10]: 100 to 1000 nM; IC50 [11]: 10 to 100 nM; IC50 [12, 32]: 10 to 100 nM |
